Laboratory results from ChEMBL document CHEMBL1671667, “Impact of low-level resistance to fluoroquinolones due to qnrA1 and qnrS1 genes or a gyrA mutation on ciprofloxacin bactericidal activity in a murine model of Escherichia coli urinary tract infection” (Antimicrob Agents Chemother, 2009).
Values after ≈ are worked out from the molar mass of the structure shown.

Key:
[1] = test system: Klebsiella pneumoniae; assay: Antimicrobial activity against qnr-negative Klebsiella pneumoniae C2 harboring qnrA1 gene
[2] = in vivo; conditions: CBA, mouse, sc, 2.5 mg/kg
Description: Cmax in immunocompetent CBA mouse infected with Escherichia coli at 2.5 mg/kg, sc administered as single dose after 15 mins by liquid chromatography

`O=C(O)c1cn(C2CC2)c2cc(N3CCNCC3)c(F)cc2c1=O` [CIPROFLOXACIN] showed an MIC [1] of 4 µg/mL (≈ 12.1 µM) and a Cmax at 0.25 h [2] of 1100 ng/mL.
